SMILES strings stand for the structures.

The target in the test is Methionine aminopeptidase 2 (Homo sapiens, UniProt P50579). Nature of the test: Biochemical Assays. To be noted: pH 7.5. How it is done: Stock solutions for all assays were prepared in DMSO (10 mM) and stored at −20 °C. Assays were performed in 96 well plates (Greiner) at a total reaction volume of 100 μL. […] Then, the substrate Met-Gly-Met-Met was added to a final concentration of 400 μM. After an incubation period of 15 min (HsMetAP1), 20 min (EcMetAP), or 60 min (HsMetAP2) at 37 °C, the enzyme reactionwas stopped by adding 10 μL 4% trifluoroacetic acid (TFA), and the plate was centrifuged at 1000g for 10 min. Detection of the product Gly-Met-Met was performed by HPLC: C18 column (Dr. Maisch, ReproSil-Pur 120 ODS-3, 3 μm, 50 × 2 mm). An 80 μL injection volume was eluted with mobile phases A (H2O and 0.1% TFA, filtered, degasse
Chain of Methionine aminopeptidase 2 (P50579 whole entry): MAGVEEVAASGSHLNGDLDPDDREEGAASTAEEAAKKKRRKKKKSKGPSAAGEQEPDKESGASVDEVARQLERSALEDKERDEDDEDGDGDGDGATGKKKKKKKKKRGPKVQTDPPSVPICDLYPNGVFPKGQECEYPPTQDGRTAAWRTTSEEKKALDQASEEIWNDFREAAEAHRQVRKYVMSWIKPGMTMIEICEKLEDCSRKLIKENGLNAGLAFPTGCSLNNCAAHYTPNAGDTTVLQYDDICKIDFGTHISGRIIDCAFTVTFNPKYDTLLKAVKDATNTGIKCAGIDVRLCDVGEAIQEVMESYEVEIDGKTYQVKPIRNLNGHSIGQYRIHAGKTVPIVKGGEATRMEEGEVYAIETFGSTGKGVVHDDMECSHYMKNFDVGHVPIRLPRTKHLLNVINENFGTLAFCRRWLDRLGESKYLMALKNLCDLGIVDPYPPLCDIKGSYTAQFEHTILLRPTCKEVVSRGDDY
In the case of `COc1ccc(Cn2nnc3c2[C@]2(CC[C@H]3OC(=O)NCC(C)C)CO2)cc1` (relative stereo) [(2'R*,7R*)-3-(4-methoxybenzyl)-3,5,6,7-tetrahydrospiro[benzo[d][1,2,3]triazole-4,2'-oxiran]-7-yl isobutylcarbamate (32)], the IC50 worked out at 600 nM.

For the molecule `COc1ccc(Cn2nnc3c2[C@]2(CC[C@H]3OC(=O)Nc3ccccc3)CO2)cc1` (relative stereo) [(2'R*,7R*)-3-(4-methoxybenzyl)-3,5,6,7-tetrahydrospiro[benzo[d][1,2,3]triazole-4,2'-oxiran]-7-yl phenylcarbamate (34)], the concentration for half-maximal inhibition (IC50) worked out at 990 nM. Next, `O=C(O[C@@H]1CC[C@]2(CO2)c2c1nnn2Cc1ccccc1)c1ccccc1` (relative stereo) [(2'R*,7R*)-3-benzyl-3,5,6,7-tetrahydrospiro [benzo[d][1,2,3]triazole-4,2'-oxiran]-7-yl benzoate (29a)]: 1400 nM; `CC(C)NC(=O)O[C@@H]1CC[C@]2(CO2)c2c1nnn2Cc1ccccc1` (relative stereo) [(2'R*,7R*)-3-benzyl-3,5,6,7-tetrahydrospiro [benzo[d][1,2,3]triazole-4,2'-oxiran]-7-yl isopropylcarbamate (30a)]: 780 nM; `O=C(O[C@H]1CC[C@]2(CO2)c2c1nnn2Cc1ccccc1)c1ccccc1` (relative stereo) [(2'R*,7S*)-3-benzyl-3,5,6,7-tetrahydrospiro [benzo[d][1,2,3]triazole-4,2'-oxiran]-7-yl benzoate (29b)]: greater than 50000 nM.

For the molecule `CC(C)NC(=O)O[C@H]1CC[C@]2(CO2)c2c1nnn2Cc1ccccc1` (relative stereo) [(2'R*,7S*)-3-benzyl-3,5,6,7-tetrahydrospiro [benzo[d][1,2,3]triazole-4,2'-oxiran]-7-yl isopropylcarbamate (30b)], the midpoint of inhibition, the IC50, lay at 46000 nM. As for `C=C1CCC(OC(=O)c2ccccc2)c2nnn(Cc3ccc(OC)cc3)c21` (centres undefined) [1-[(4-methoxyphenyl)methyl]-7-methylidene-4,5,6,7-tetrahydro-1H-1,2,3-benzotriazol-4-yl benzoate (16)], the 50% inhibitory concentration (IC50) is greater than 50000 nM.

Turning to `Cc1ccccc1Cn1nnc2c1C1(CCC2=O)CO1` (centres undefined) [3-(2-methylbenzyl)-5,6-dihydrospiro[benzo[d][1,2,3]triazole-4,2'-oxiran]-7(3H)-one (23)], the IC50 was 2300 nM. Next, `O=C1CCC2(CO2)c2c1nnn2Cc1ccc(C(F)(F)F)cc1` (centres undefined) [3-(4-(trifluoromethyl)benzyl)-5,6-dihydrospiro[benzo[d][1,2,3]triazole-4,2'-oxiran]-7(3H)-one (28)]: 440 nM. Next, `O=C1CCC2(CO2)c2c1nnn2Cc1ccc(Cl)cc1` (centres undefined) [3-(4-chlorobenzyl)-5,6-dihydrospiro[benzo[d][1,2,3]triazole-4,2'-oxiran]-7(3H)-one (27)]: 520 nM.

With `O=C1CCC2(CO2)c2c1nnn2Cc1ccc(F)cc1` (centres undefined) [3-(4-fluorobenzyl)-5,6-dihydrospiro[benzo[d][1,2,3]triazole-4,2'-oxiran]-7(3H)-one (26)], the half-inhibitory concentration (IC50) is 250 nM. Next, `COc1ccc(Cn2nnc3c2C2(CCC3=O)CO2)cc1` (centres undefined) [3-(4-methoxybenzyl)-5,6-dihydrospiro[benzo[d][1,2,3]triazole-4,2'-oxiran]-7(3H)-one (14)]: 460 nM; `N#Cc1cccc(Cn2nnc3c2C2(CCC3=O)CO2)c1` (centres undefined) [3-((7-oxo-6,7-dihydrospiro[benzo[d][1,2,3]triazole-4,2'-oxiran]-3(5H)-yl)methyl)benzonitrile (24)]: 1100 nM. Next, `O=C1CCC2(CO2)c2c1nnn2CC1CCCCC1` (centres undefined) [3-(cyclohexylmethyl)-5,6-dihydrospiro[benzo[d][1,2,3]triazole-4,2'-oxiran]-7(3H)-one (21)]: greater than 50000 nM; `O=C1CCC2(CO2)c2c1nnn2Cc1ccc2ccccc2c1` (centres undefined) [3-(naphthalen-2-ylmethyl)-5,6-dihydrospiro[benzo[d][1,2,3]triazole-4,2'-oxiran]-7(3H)-one (25)]: 590 nM; `O=C1CCC2(CO2)c2c1nnn2Cc1ccccc1` (centres undefined) [3-benzyl-5,6-dihydrospiro[benzo[d][1,2,3]triazole-4,2'-oxiran]-7(3H)-one (22)]: 2900 nM.

Regarding `COc1ccc(Cn2nnc3c2[C@]2(CC[C@H]3OC(=O)c3ccccc3)CO2)cc1` [(2'R*,7R*)-3-(4-methoxybenzyl)-3,5,6,7-tetrahydrospiro[benzo[d][1,2,3]triazole-4,2'-oxiran]-7-yl benzoate (17a)], the IC50 stood at 930 nM. Next, `COc1ccc(Cn2nnc3c2[C@]2(CC[C@@H]3OC(=O)c3ccccc3)CO2)cc1` [(2'R*,7S*)-3-(4-methoxybenzyl)-3,5,6,7-tetrahydrospiro[benzo[d][1,2,3]triazole-4,2'-oxiran]-7-yl benzoate (17b)]: 35000 nM; `COc1ccc(Cn2nnc3c2[C@]2(CC[C@H]3NC(=O)OCC(C)C)CO2)cc1` [isobutyl ((2'R*,7R*)-3-(4-methoxybenzyl)-3,5,6,7-tetrahydrospiro[benzo[d][1,2,3]triazole-4,2'-oxiran]-7-yl)carbamate (35)]: 600 nM.

The record behind these values is BindingDB's records for doi:10.1021/acschembio.5b00755 (German Cancer Research Center (Dkfz), 2016).
